In patent US20170354721A1, “WOUND HEALING COMPOUND” (priority 2016, published 2017):

Legend:
[1] = system: all ranges of bacterial infection; details: in water or saline; cited from earlier work
[2] = system: ancef sensitive organisms; assay: Minimum bactericidal concentration (MBC) of ancef; assay type: cell-based
Experimental: In an operating room setting, the vancomycin is reconstituted at room temperature (˜25° C.). […] To insure the Minimal Inhibitory Concentration (MIC) for vancomycin is exceeded, the total amount of vancomycin added to the mixture ranges from 1 mg to 5000 mg with the preferred amount being 500 mg for a 10 ml syringe, 750 mg for a 15 ml syringe, and 1000 for a 20 ml syringe. People having skill in the art will recognize that the concentrations of vancomycin can be adjusted for different sized syringes. The reconstituted vancomycin is added to the thrombin-flowable agent mixture to form a wound healing compound (“compound”). The compound is applied directly to the target wound. The Minimum Inhibitory Concentration (MIC) is defined as the lowest concentration of antimicrobial that will inhibit the visible growth of a microorganism after an overnight incubation. Related to this is the minimum bactericidal concentration (MBC), which is the lowest concentration of antimicrobial agent that will prevent the growth of an organism after subculture on to antibiotic free media.
Depending on the infection agent, other antibiotics may be added to the mixture to form the wound healing compound. In the lab, ancef sensitive organisms are inhibited at an MIC ranging from 1-4 mcg/ml. However, ancef is bactericidal a four times the MIC. […]

[3] = system: ancef sensitive organisms; details: in the lab; cited from earlier work

Row | Compound | concentration at which most effective if all ranges of bacterial infection are to be inhibited [1] | preferred concentration (the MBC), bactericidal at four times the MIC [2] | MIC [3]
1 | CN[C@H](CC(C)C)C(=O)N[C@H]1C(=O)N[C@@H](CC(N)=O)C(=O)N[C@H]2C(=O)N[C@H]3C(=O)N[C@H](C(=O)N[C@H](C(=O)O)c4cc(O)cc(O)c4-c4cc3ccc4O)[C@H](O)c3ccc(c(Cl)c3)Oc3cc2cc(c3O[C@@H]2O[C@H](CO)[C@@H](O)[C@H](O)[C@H]2O[C@H]2C[C@](C)(N)[C@H](O)[C@H](C)O2)Oc2ccc(cc2Cl)[C@H]1O [Vancomycin, vancomycin] | ≥ 16 µg/mL | – | –
2 | Cc1nnc(SCC2=C(C(=O)O)N3C(=O)[C@@H](NC(=O)Cn4cnnn4)[C@H]3SC2)s1 [ancef] | – | at least 16 mcg/ml | 1 to 4 µg/mL
